Active and inactive are the calls of the source. The calls are words filed in the database; no cut-off is given here.
Tests used:
[1] = target: Ribosomal protein S6 kinase alpha-3 (Homo sapiens) (UniProt P51812); assay: Inhibition of human recombinant N-terminal RSK2 kinase domain 1 assessed as residual activity at 10 uM after 1 hr by qPCR analysis relative to control
[2] = target: Serine/threonine-protein kinase RIO2 (Homo sapiens) (UniProt Q9BVS4); assay: Inhibition of human recombinant RIOK2 assessed as residual activity at 10 uM after 1 hr by qPCR analysis relative to control
Chain of Serine/threonine-protein kinase RIO2 (Homo sapiens) (Q9BVS4 whole entry, looked up): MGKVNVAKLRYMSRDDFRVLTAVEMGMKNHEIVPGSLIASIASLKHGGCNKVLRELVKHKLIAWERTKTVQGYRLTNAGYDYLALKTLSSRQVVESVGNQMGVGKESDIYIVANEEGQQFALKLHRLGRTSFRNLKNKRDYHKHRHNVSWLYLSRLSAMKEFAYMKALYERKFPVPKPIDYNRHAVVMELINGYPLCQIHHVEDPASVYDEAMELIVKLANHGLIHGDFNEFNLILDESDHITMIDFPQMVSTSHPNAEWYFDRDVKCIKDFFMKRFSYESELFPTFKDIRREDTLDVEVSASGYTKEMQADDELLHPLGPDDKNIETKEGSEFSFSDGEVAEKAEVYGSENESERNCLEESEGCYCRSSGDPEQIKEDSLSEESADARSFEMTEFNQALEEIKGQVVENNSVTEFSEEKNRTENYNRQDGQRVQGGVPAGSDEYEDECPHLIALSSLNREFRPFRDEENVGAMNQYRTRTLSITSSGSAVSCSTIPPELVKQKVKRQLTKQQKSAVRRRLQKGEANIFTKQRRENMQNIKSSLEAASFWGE

[3] = target: RAC-beta serine/threonine-protein kinase (Homo sapiens) (UniProt P31751); assay: Inhibition of human recombinant AKT2 assessed as residual activity at 10 uM after 1 hr by qPCR analysis relative to control
Chain of RAC-beta serine/threonine-protein kinase (Homo sapiens) (P31751 whole entry): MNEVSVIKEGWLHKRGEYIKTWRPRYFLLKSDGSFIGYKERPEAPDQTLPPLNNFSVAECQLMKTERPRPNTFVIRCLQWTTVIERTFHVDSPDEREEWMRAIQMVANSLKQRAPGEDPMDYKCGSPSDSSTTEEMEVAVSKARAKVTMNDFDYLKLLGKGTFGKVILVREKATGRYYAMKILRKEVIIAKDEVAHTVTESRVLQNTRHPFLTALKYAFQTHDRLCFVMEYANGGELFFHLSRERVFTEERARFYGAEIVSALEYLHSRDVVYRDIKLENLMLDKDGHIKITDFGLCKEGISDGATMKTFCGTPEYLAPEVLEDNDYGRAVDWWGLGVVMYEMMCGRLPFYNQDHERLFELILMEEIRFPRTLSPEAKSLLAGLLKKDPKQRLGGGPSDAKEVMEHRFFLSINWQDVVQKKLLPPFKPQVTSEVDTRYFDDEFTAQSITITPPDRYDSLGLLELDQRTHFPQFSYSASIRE

[4] = target: Macrophage colony-stimulating factor 1 receptor (Homo sapiens) (UniProt P07333); assay: Inhibition of human recombinant CSF1R assessed as residual activity at 10 uM after 1 hr by qPCR analysis relative to control
[5] = target: Mitogen-activated protein kinase 14 (Homo sapiens) (UniProt Q16539); assay: Inhibition of human recombinant p38alpha assessed as residual activity at 10 uM after 1 hr by qPCR analysis relative to control
Chain of Mitogen-activated protein kinase 14 (Homo sapiens) (Q16539 whole entry): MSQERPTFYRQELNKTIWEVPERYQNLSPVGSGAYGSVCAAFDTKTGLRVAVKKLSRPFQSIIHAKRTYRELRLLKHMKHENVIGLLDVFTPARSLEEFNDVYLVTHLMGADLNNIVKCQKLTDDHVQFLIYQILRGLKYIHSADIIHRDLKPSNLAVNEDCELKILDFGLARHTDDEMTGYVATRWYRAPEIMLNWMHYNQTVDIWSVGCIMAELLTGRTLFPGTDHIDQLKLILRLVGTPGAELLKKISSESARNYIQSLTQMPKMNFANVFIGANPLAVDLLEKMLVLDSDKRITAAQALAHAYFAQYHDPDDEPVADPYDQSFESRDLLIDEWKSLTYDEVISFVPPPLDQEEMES

786-0 = assay: Antitumor activity against human 786-0 cells xenografted in athymic nude/beige mouse assessed as tumor growth inhibition at 0.16 mg/kg, ip qd after 24 days; assay type: functional, organism-based
[6] = target: Non-receptor tyrosine-protein kinase TYK2 (Homo sapiens) (UniProt P29597); assay: Inhibition of human recombinant TYK2 (JH1 domain-catalytic) assessed as residual activity at 10 uM after 1 hr by qPCR analysis relative to control
[7] = target: Dual specificity mitogen-activated protein kinase kinase 1 (Homo sapiens) (UniProt Q02750); assay: Inhibition of human recombinant MEK1 assessed as residual activity at 10 uM after 1 hr by qPCR analysis relative to control
[8] = system: Tyrosine-protein kinase ABL1 (Homo sapiens), P00519 [E255K]; assay: Inhibition of human recombinant phosphorylated ABL1 E255K mutant assessed as residual activity at 10 uM after 1 hr by qPCR analysis relative to control
Chain of Tyrosine-protein kinase ABL1 (Homo sapiens), P00519 [E255K] (P00519 whole entry E255K, the tested form may be a part): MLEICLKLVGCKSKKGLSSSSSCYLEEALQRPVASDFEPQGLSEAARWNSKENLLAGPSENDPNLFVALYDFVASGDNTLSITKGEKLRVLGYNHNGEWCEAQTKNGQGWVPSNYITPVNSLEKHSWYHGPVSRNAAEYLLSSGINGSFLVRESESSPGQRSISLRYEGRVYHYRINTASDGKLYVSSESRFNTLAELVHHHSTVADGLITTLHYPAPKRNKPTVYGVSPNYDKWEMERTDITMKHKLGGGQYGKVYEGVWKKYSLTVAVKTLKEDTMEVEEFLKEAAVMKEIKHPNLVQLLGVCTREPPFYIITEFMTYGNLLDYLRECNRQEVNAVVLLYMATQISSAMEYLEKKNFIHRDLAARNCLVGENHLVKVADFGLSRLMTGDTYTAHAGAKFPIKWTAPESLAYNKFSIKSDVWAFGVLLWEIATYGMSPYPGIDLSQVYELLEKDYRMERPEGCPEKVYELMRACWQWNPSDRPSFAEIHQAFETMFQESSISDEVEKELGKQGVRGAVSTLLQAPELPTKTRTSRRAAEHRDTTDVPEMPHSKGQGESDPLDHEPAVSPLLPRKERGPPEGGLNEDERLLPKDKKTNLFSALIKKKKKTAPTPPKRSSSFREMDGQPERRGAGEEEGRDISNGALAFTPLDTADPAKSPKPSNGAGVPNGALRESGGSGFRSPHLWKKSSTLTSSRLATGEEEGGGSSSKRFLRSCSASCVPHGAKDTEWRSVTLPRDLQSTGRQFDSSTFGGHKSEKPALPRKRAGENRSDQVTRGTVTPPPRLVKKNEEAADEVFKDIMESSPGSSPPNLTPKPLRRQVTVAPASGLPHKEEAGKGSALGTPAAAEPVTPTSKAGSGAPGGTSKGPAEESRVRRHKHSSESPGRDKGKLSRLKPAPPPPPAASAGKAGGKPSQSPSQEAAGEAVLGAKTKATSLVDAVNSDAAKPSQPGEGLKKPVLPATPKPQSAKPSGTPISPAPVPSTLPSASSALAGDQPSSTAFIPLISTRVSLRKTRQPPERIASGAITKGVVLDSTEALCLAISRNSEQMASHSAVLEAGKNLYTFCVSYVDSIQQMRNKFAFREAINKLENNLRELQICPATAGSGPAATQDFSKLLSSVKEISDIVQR

[9] = target: Phosphatidylinositol 4-phosphate 3-kinase C2 domain-containing subunit beta (Homo sapiens) (UniProt O00750); assay: Inhibition of human recombinant PIK3C2B assessed as residual activity at 10 uM after 1 hr by qPCR analysis relative to control
Chain of Phosphatidylinositol 4-phosphate 3-kinase C2 domain-containing subunit beta (Homo sapiens) (O00750 whole entry, the tested form may be a part): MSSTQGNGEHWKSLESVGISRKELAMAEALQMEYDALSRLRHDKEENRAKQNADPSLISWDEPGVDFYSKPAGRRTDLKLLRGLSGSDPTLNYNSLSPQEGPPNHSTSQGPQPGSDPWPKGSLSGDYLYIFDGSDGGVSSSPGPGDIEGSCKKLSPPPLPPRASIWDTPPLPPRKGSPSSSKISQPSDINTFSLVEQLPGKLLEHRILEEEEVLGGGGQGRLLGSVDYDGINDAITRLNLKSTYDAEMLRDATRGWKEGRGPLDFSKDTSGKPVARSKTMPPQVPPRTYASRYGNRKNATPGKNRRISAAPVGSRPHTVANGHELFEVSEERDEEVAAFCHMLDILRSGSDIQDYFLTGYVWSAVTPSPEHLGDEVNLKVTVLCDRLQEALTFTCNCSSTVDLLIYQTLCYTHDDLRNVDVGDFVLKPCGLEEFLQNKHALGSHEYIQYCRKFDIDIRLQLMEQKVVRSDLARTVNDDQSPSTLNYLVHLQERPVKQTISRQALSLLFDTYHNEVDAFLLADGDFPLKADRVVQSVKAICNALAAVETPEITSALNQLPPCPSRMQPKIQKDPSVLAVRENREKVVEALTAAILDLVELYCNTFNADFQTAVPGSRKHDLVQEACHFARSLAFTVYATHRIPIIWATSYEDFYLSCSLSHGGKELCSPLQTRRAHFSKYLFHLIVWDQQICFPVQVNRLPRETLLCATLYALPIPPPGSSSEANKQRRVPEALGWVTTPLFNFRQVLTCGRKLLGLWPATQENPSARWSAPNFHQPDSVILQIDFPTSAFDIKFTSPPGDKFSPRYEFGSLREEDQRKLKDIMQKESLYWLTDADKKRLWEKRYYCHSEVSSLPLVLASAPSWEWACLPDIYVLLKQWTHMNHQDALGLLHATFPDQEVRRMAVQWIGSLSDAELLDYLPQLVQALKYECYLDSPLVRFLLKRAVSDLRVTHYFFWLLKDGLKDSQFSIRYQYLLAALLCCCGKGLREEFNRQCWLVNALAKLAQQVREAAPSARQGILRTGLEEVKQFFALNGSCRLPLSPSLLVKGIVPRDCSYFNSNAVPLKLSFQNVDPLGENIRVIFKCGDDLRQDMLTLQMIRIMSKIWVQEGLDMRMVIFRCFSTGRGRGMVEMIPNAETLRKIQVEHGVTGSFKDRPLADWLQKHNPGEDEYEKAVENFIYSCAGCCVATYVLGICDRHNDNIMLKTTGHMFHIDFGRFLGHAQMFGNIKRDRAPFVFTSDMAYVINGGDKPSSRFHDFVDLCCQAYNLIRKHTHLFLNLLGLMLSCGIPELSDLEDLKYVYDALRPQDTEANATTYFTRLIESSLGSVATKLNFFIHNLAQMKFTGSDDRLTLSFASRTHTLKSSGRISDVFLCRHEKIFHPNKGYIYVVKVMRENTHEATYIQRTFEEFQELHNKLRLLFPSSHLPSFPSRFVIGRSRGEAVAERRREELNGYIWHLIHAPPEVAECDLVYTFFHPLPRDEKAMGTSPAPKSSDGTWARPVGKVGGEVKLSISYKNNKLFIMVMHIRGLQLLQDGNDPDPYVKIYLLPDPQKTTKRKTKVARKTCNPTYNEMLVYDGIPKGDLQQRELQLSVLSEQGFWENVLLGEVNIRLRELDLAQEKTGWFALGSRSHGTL

[10] = target: Inhibitor of nuclear factor kappa-B kinase subunit beta (Homo sapiens) (UniProt O14920); assay: Inhibition of human recombinant IKKbeta assessed as residual activity at 10 uM after 1 hr by qPCR analysis relative to control

Chain of Ribosomal protein S6 kinase alpha-3 (Homo sapiens) (P51812 whole entry, the tested form may be a part): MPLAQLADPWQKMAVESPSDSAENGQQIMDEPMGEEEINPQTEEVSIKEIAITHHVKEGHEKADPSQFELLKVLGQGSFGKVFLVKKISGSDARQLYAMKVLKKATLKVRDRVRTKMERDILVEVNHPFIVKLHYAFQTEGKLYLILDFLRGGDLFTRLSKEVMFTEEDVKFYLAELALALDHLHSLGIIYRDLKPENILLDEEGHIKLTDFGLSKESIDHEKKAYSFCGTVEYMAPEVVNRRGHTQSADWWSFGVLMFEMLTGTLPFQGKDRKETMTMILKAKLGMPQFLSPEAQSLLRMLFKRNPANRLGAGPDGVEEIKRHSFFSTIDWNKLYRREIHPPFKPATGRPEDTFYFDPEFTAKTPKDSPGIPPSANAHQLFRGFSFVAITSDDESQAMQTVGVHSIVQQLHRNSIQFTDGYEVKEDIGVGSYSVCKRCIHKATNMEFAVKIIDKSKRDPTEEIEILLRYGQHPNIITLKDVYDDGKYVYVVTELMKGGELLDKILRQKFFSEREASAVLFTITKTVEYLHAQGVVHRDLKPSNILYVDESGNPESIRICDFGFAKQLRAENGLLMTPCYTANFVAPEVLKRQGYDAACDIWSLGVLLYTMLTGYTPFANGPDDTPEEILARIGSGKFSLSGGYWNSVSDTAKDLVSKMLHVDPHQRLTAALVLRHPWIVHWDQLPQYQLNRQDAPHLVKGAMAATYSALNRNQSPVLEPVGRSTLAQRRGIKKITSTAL

What does the source list for Cc1c(Cl)cccc1NC(=O)c1sc2nc3c(cc2c1N)C(=O)CC3?
Activity [1]: 94%; Activity [2]: 43%; Activity [3]: 72%; Activity [4]: 100%; Activity [5]: 100%; TGI (786-0): Active; Activity [6]: 94%; Activity [7]: 100%; Activity [8]: 100%; Activity [9]: 100%; Activity [10]: 100%
